Numbers after ± are expanded uncertainties.
Key:
[1] = Liquid, Vibrating tube method
[2] = xn = mol fraction of the nth substance listed; conditions: 101 kPa, Liquid, Vibrating tube method

Structure (SMILES): CCCC[N+](C)(CCCC)CCCC.O=S(=O)([N-]S(=O)(=O)C(F)(F)F)C(F)(F)F [tributylmethylammonium bis((trifluoromethyl)sulfonyl)imide]
- mass density ([1]; 298.15 K, 101.33 kPa): 1261.65 ± 6 kg/m3

Structure (SMILES): CCCCCCCC [octane]
- mass density ([1]; 298.15 K, 101.33 kPa): 698.86 ± 2 kg/m3
- mass density ([1]; 308.15 K, 101 kPa): 690.72 ± 2 kg/m3
- mass density ([1]; 318.15 K, 101 kPa): 682.5 ± 2 kg/m3

Structure (SMILES): c1ccccc1 [benzene]
- mass density ([1]; 298.15 K, 101.33 kPa): 873.71 ± 2 kg/m3
- mass density ([1]; 308.15 K, 101 kPa): 862.98 ± 2 kg/m3
- mass density ([1]; 318.15 K, 101 kPa): 852.16 ± 2 kg/m3

Structure (SMILES): CCCCCCCCCC [decane]
- mass density ([1]; 298.15 K, 101.33 kPa): 726.15 ± 2 kg/m3

Structure (SMILES): CCCC[N+](C)(C)C.O=S(=O)([N-]S(=O)(=O)C(F)(F)F)C(F)(F)F [butyltrimethylammonium bis(trifluoromethylsulfonyl)imide]
- mass density ([1]; 298.15 K, 101.33 kPa): 1392.99 ± 6 kg/m3

Structure (SMILES): c1ccccc1 [benzene] + CCCCCCCC
- mass density ([2]; 308.15 K, x2 = 0): 862.98 ± 2 kg/m3
- mass density ([2]; 318.15 K, x2 = 0): 852.16 ± 2 kg/m3

Structure (SMILES): CCCCCCCCCCCC [dodecane]
- mass density ([1]; 298.15 K, 101.33 kPa): 745.28 ± 2 kg/m3

Structure (SMILES): CCCCCCCC [octane] + c1ccccc1
- mass density ([2]; 308.15 K, x1 = 0.0959): 832.4 ± 4.5 kg/m3
- mass density ([2]; 308.15 K, x1 = 0.1937): 806.43 ± 3.9 kg/m3
- mass density ([2]; 308.15 K, x1 = 0.3048): 781.74 ± 3.5 kg/m3
- mass density ([2]; 308.15 K, x1 = 0.41): 762.04 ± 3.2 kg/m3
- mass density ([2]; 308.15 K, x1 = 0.5097): 745.81 ± 2.9 kg/m3
- mass density ([2]; 308.15 K, x1 = 0.6058): 732.34 ± 2.7 kg/m3
- mass density ([2]; 308.15 K, x1 = 0.711): 719.36 ± 2.6 kg/m3
- mass density ([2]; 308.15 K, x1 = 0.8101): 708.42 ± 2.5 kg/m3
- mass density ([2]; 308.15 K, x1 = 0.9076): 698.91 ± 2.4 kg/m3
- mass density ([2]; 308.15 K, x1 = 1): 690.72 ± 2 kg/m3
- mass density ([2]; 318.15 K, x1 = 0.0988): 821.33 ± 4.4 kg/m3
- mass density ([2]; 318.15 K, x1 = 0.1982): 796.48 ± 3.9 kg/m3
- mass density ([2]; 318.15 K, x1 = 0.3072): 771.56 ± 3.5 kg/m3
- mass density ([2]; 318.15 K, x1 = 0.407): 753.05 ± 3.1 kg/m3
- mass density ([2]; 318.15 K, x1 = 0.5096): 736.77 ± 2.9 kg/m3
- mass density ([2]; 318.15 K, x1 = 0.598): 724.35 ± 2.7 kg/m3
- mass density ([2]; 318.15 K, x1 = 0.7048): 711.47 ± 2.6 kg/m3
- mass density ([2]; 318.15 K, x1 = 0.8039): 700.49 ± 2.5 kg/m3
- mass density ([2]; 318.15 K, x1 = 0.9005): 691.19 ± 2.4 kg/m3
- mass density ([2]; 318.15 K, x1 = 1): 682.5 ± 2 kg/m3

— the NIST ThermoML archive (doi:10.1016/j.fluid.2016.02.006)
